System: db/db mice
Assay: Diabetic db/db Mouse In Vivo Assay
Details: female db/db mice
Source text: Db/db mice are known in the art to be susceptible to Type II diabetes (Sharma K, McCue P, Dunn S R. Am J Physiol Renal Physiol. 2003 June; 284(6):F1138-44). The Db/db mice are also known in the art to be a useful model for dylipidemia.
Female db/db mice (C57BL/6J-Lep^db/db, Jackson Laboratories, Bar Harbor, Me., USA) were received at 8 weeks of age and single-housed and fed with regular chow diet. Blood was collected by tail puncture and glucose was monitored with a glucometer (OneTouch Basic, Lifescan, Newtown, Pa.).
Mice at 10 weeks of age were randomized into treatment groups based on glucose values (first criterion, average of 250 mg/dl) and body weight (second criterion, average of 37 gram). The mice were orally gavaged once daily (0.2 ml at 1500-1700 hour) with vehicle control (0.5% methylcellulose, pH7.4) and vehicle containing test compound (300 mg/kg). On day 11, the mice were fasted for 4 hr during light cycle (food was removed 0600-1000 hour) and blood glucose levels were measured through tail puncture with a glucometer at 1000 hour. The mice were then anaesthetized with sodium pentobarbital (1 ml/kg, i.p, Sleepaway, Fort Dodge, Iowa) and blood was drawn via cardiac puncture and collected into heparinized tubes.
White adipose tissue (WAT) (retroperitoneal fat) and skeletal muscle (gastrocnemius and soleus muscle) were dissected and weighed. Plasma samples were obtained by centrifuge at 2,000 g for 15 minutes at 4° C. and subjected to measurement of insulin, HDL cholesterol and triglyceride.
Data shown below are expressed as the mean and standard error calculated using 9-10 mice per treatment group. The 2 tailed Student's t-Tests were used for statistic analysis. All animal studies complied with the guideline of the Institutional Animal Care and Use Committee.

[1] = 300 mg/kg oral gavage once daily, day 11, plasma, mean ± standard error
[2] = 300 mg/kg oral once daily, in words

With NS(=O)(=O)NCc1csc2ccccc12 [Compound #1, N-(benzo[b]thien-3-ylmethyl)-sulfamide] as the compound, how does the “Blood Glucose” value (300 mg/kg oral gavage once daily, day 11, 4 hr fasted, mean ± standard error, 9-10 mice) read?
Its value is 350 ± 19 mg/dL.

What about the “HDL Cholesterol” value [1] of the same compound?
The value was 52.6 ± 1.8 mg/dL.

What about the Triglycerides [1] of the same compound?
The Triglycerides was 149.2 ± 15.8 mg/dL.

And the Insulin levels (300 mg/kg oral gavage once daily, day 11, plasma, vehicle 11.9±2.2)?
Its Insulin levels is 14.6±3.0.

And the “Skeletal Muscle Weight” value (300 mg/kg oral gavage once daily, day 11, gastrocnemius and soleus muscle, mean ± standard error)?
Its value is 0.155 ± 0.004 g.

And the “Retroperitoneal Fat Weight” value (300 mg/kg oral gavage once daily, day 11, mean ± standard error)?
The value was 1.29 ± 0.09 g.

And the “blood glucose levels as compared to vehicle treated mice” value [2]?
Its value is “significantly lower”.

And the “blood triglyceride levels as compared to vehicle treated mice” value [2]?
The value was “decreased”.

What about the “plasma HDL cholesterol levels as compared to vehicle treated mice” value [2] of the same compound?
Its value is “significantly increased”.

What about the “skeletal muscle mass versus vehicle” value [2] of the same compound?
Its value is “increased skeletal muscle mass”.

And the “fat to lean mass ratio” value (300 mg/kg oral once daily, versus vehicle, in words)?
The value was “significant decrease”.
